Data reported in US20150168379A1, “METHOD OF IDENTIFYING AND SCREENING DRUG CANDIDATE FOR PREVENTING AND/OR TREATING ISCHEMIC MYOCARDIAL DISEASE” (Macau University of Science and Technology, priority 2013, published 2015).
“Also recorded” adds a separate entry of the source.

Tests used:
[1] = test system: bal-2, procaspase-3, procaspase-9, Akt, and Erk in myocardial cells; experiment: Expression levels of proteins of the mitochondrial-induced apoptosis pathway by western blotting; type: cell-based; conditions: 100 μM
H9C2 cell line [2] = experiment: Mitochondrial membrane potential changes by flow cytometer (JC-1); type: cell-based
Experimental: Myocardial cell lines, H9C2 and HL-1 were respectively seeded into culture dishes. KRB (Krebs-Ringer Bicarbonate buffer) solution replaced normal DMEM medium without the addition of serum. Cells were immediately placed in adjustable hypoxia box (Billups-Rothenberg) connected with gas flowmeter (rate of flow: 25L/min), in which the partial pressure of oxygen in the box was made to decrease from 20 kPa to 0 kPa within one minute. Hypoxia box was placed in a regular incubator for different incubation periods to create hypoxia conditions. Hypoxia box was then opened and the medium was replaced with normal medium containing serum, followed by normal incubation at 37° C. for the time periods corresponding to those in the hypoxia conditions in order to create re-oxygenation conditions.
Seven components of protopanaxatriol-type ginsenosides, namely Re, Rf, Rg1, 20(S)-Rg2, 20(R)-Rg2, 20(S)-Rh1 and 20(R)-Rh1, were used to pre-treat myocardial cells. Each component was dissolved with normal medium and DMSO as co-solvent and used to pre-treat cells one hour before hypoxia. Subsequently, medium was replaced with hypoxia medium. The effects of each component on survival, mitochondrial respiration, morphology, and mitochondrial function and movement of myocardial cells were analyzed, and the results thereof were used in candidate agent selection.
Membrane potential of mitochondria, apoptosis rate, ROS release and cell cytotoxicity of myocardial cells were analyzed by flow cytometry. Upon pre-treatment of cells in different groups with Rg1, Sil (Sildenafil, the positive control drug), DOX (Doxorubicin, a cardiac toxic chemical which can induce H/R damage in myocardial cells) or FCCP (Carbonyl cyanide 4-(trifluoromethoxy) phenylhydrazone), the cells were then treated with hypoxia and reoxygenation conditions, in which the duration of each condition was 3 hours. 1 ml PBS buffer was added into culture dish with mixing. […] Fluorescence intensity of cells were analyzed by flow cytometry (each sample contains more than 10,000 cells). […]

H9C2 cell line [3] = experiment: Apoptosis rate of myocardial cells under hypoxia and reoxygenation by flow cytometry; type: cell-based; conditions: 3-hour hypoxia and 3-hour reoxygenation
Experimental: (§1) Myocardial cell lines, H9C2 and HL-1 were respectively seeded into culture dishes. KRB (Krebs-Ringer Bicarbonate buffer) solution replaced normal DMEM medium without the addition of serum. Cells were immediately placed in adjustable hypoxia box (Billups-Rothenberg) connected with gas flowmeter (rate of flow: 25L/min), in which the partial pressure of oxygen in the box was made to decrease from 20 kPa to 0 kPa within one minute. Hypoxia box was placed in a regular incubator for different incubation periods to create hypoxia conditions. […]
(§2) Seven components of protopanaxatriol-type ginsenosides, namely Re, Rf, Rg1, 20(S)-Rg2, 20(R)-Rg2, 20(S)-Rh1 and 20(R)-Rh1, were used to pre-treat myocardial cells. […] The effects of each component on survival, mitochondrial respiration, morphology, and mitochondrial function and movement of myocardial cells were analyzed, and the results thereof were used in candidate agent selection.
(§3) Membrane potential of mitochondria, apoptosis rate, ROS release and cell cytotoxicity of myocardial cells were analyzed by flow cytometry. […] Fluorescence intensity of cells were analyzed by flow cytometry (each sample contains more than 10,000 cells). Cell fluorescence image was analyzed with fluorescence intensity of Rh123 as x-axis and fluorescence intensity of PI as y-axis. […]

Mitofusin 2 (Mfn2) = target: T1, Mitofusin 2 (Mfn2) (Mus musculus, UniProt Q80U63); experiment: Binding with mitofusin-2 in myocardial cells under hypoxia and reoxygenation (western blotting); conditions: FIG. 9
T1 construct: endogenous in cells; host or cells: myocardial cells under hypoxia and reoxygenation (method text: total protein from mouse myocardial infarction tissue)
T1 sequence (Q80U63 1-757): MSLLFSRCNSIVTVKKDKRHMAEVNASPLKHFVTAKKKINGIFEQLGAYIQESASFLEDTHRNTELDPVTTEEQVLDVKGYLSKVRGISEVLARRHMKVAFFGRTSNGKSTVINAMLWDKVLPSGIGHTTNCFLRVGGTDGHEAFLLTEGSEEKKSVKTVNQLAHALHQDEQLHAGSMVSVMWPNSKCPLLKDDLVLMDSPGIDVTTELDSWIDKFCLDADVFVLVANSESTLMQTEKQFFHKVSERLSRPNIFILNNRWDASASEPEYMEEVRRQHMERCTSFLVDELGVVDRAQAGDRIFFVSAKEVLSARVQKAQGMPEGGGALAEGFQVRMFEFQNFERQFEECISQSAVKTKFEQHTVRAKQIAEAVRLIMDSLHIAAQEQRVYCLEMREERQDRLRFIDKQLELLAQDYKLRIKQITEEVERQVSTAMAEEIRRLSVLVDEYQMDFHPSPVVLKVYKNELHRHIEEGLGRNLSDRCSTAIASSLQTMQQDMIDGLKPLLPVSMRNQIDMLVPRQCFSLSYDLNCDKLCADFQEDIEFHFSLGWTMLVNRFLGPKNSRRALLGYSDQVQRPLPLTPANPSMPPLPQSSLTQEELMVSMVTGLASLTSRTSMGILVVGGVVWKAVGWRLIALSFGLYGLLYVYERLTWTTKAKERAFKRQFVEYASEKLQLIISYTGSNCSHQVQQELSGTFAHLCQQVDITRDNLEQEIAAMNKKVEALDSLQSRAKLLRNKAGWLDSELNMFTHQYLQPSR

H9C2 cell line [4] = experiment: ROS release (DCFDA, flow cytometer); type: cell-based
Experimental: Cells were harvested and a single cell suspension was produced by gently pipetting up and down suspension cells or by fully detaching adherent cells. Cells in culture media were stained with 20 μM DCFDA and incubated for 30 minutes at 37° C. After staining, cells were treated with Rg1, DOX or Sil. Cells were gently pipetted to produce single cell suspension. Cells were then analyzed by flow cytometer in which forward and side scatter gates were established to exclude debris and cellular aggregates from the analysis. DCF was excited by the 488 nm laser and detected at 535 nm (typically FL1). 10,000 cells were analyzed per experimental condition. The whole study was repeated 3 times.

H9C2 cell line [5] = experiment: Survival rate of myocardial cells under hypoxia and reoxygenation (MTT); type: cell-based; conditions: H9C2, pre-treated one hour before hypoxia, FIG. 2/3
Experimental: as §1
Seven components of protopanaxatriol-type ginsenosides, namely Re, Rf, Rg1, 20(S)-Rg2, 20(R)-Rg2, 20(S)-Rh1 and 20(R)-Rh1, were used to pre-treat myocardial cells. […] The effects of each component on survival, mitochondrial respiration, morphology, and mitochondrial function and movement of myocardial cells were analyzed, and the results thereof were used in candidate agent selection. […]
Optical density (OD) of cells was measured at wavelength of 570 nm by multiple-well plate spectrophotometer. Survival rate of the cells incubated under normal condition was set as 100%, and the survival rate of the blank control group was measured simultaneously as baseline for background subtraction. […]

H9C2 cell line [6] = experiment: Cell cytotoxicity of myocardial cells under hypoxia and reoxygenation by flow cytometry; type: cell-based; conditions: pretreated, FIG. 5
Experimental: as §1, §2, §3

[7] = 100 μM, compared with the control group
[8] = 200 μM, compared with the control group

## CC(C)=CCC[C@](C)(O[C@@H]1O[C@H](CO)[C@@H](O)[C@H](O)[C@H]1O)[C@H]1CC[C@]2(C)[C@@H]1[C@H](O)C[C@@H]1[C@@]3(C)CC[C@H](O)C(C)(C)[C@@H]3[C@@H](O[C@@H]3O[C@H](CO)[C@@H](O)[C@H](O)[C@H]3O)C[C@]12C [Rg1]
[1]
  Protection for myocardial cells induced by hypoxia and reoxygenation: significant protection
H9C2 cell line [2]; [7]
  Mitochondrial membrane potential changes: significantly reduce the decrease of mitochondrial membrane potential changes
H9C2 cell line [2]; [8]
  Mitochondrial membrane potential changes: significantly reduce the decrease of mitochondrial membrane potential changes
H9C2 cell line [2]; JC-1, hypoxia and reoxygenation, concentration not given, FIG. 6
  Mitochondrial membrane potential changes: can inhibit the decrease of mitochondrial membrane potential changes
H9C2 cell line [3]; [7]
  Apoptosis rate of myocardial cells: significantly inhibit apoptosis
H9C2 cell line [3]; 200 μM
  Apoptosis rate of myocardial cells: can decrease apoptosis rate; also recorded: significantly inhibit apoptosis
Mitofusin 2 (Mfn2)
  Binding with Mitofusin 2 (Mfn2) in mitochondria: binding with Mitofusin 2 (Mfn2)
H9C2 cell line [4]; [7]
  ROS release: significantly reduce the release of ROS
H9C2 cell line [4]; [8]
  ROS release: significantly reduce the release of ROS
H9C2 cell line [4]; concentration not given, FIG. 7
  ROS release: can decrease the release of ROS
H9C2 cell line [5]
  Survival rate of myocardial cells: capable of increasing survival rate
H9C2 cell line [6]
  Cytotoxicity of myocardial cells: can decrease the cytotoxicity
